Reference: patent EP3882250B1, “TETRAHYDROPYRANYL AMINO-PYRROLOPYRIMIDINONE FOR USE IN TREATING BTK-MEDIATED DISORDERS” (ArQule, Inc., priority 2015, dated 2017)

Key:
[1] = tested on: TMD-8 cells; assay: Anti-proliferation Assay (MTS), TMD-8 cells; type: cell-based; conditions: Homo sapiens, TMD8, treated for 72 hours, MTS cell survival
Method: (§1) Cell survival is determined by a MTS assay. Briefly, cells (i.e., TMD-8 cells or Rec-1 cells) are plated in a 96-well plate, cultured in complete growth medium, and then treated with various drugs and drug combinations. MTS/PMS is added and incubated, followed by assessment of cell viability using the microplate reader. Data is normalized to untreated controls and analyzed with Microsoft Excel.
(§2) Cell survival was determined by the MTS assay. Briefly, cells (i.e., TMD-8 cells or Rec-1 cells) were plated in a 96-well plate at 2,000-10,000 cells per well, cultured for 24 hours in complete growth medium, and then treated with various drugs and drug combinations for 72 hours. MTS/PMS was added and incubated for 4 hour, followed by assessment of cell viability using the microplate reader (absorbance at 490 nm). Data were normalized to untreated controls and analyzed with Microsoft Excel.

[2] = tested on: Rec-1 cells; assay: Anti-proliferation Assay (MTS), Rec-1 cells; type: cell-based; conditions: Homo sapiens, Rec1, treated for 72 hours, MTS cell survival
Method: as §1, §2

In the case of `O=C(c1ccc(Oc2ccccc2)cc1Cl)c1c[nH]c2ncnc(N[C@@H]3CC[C@@H](CO)OC3)c12` [Compound (I), (2-chloro-4-phenoxyphenyl)(4-(((3R,6S)-6-(hydroxymethyl)tetrahydro-2H-pyran-3-yl)amino)-7H-pyrrolo[2,3-d]pyrimidin-5-yl)methanone], the IC50 [1] is reported as 0.13 ± 0.06 µM and the IC50 [2] is reported as 0.18 ± 0.07 µM.
